Key:
Assay type in all cases: in vivo
[1] = system: common ragweed (Ambrosia artemisiifolia L., AMBEL); assay: Post-emerge greenhouse herbicide test, phytotoxicity rating; conditions: 14 days after application
How it was run: (§1)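 Plants at the 2-3 leaf stage, sown 8-21 days earlier, were track-sprayed post-emergence with compound in acetone plus 0.25% v/v non-ionic surfactant at 63-1000 g ai/ha (187 l/ha). Damage was rated at 14 days on a 0-100 scale (0 none, 100 all plants dead), for both crop injury and weed control.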

[2] = system: field corn (Zea mays L., var. Dekalb 535, CORN); assay: Post-emerge greenhouse test, crop damage rating; conditions: 14 days after application
How it was run: as §1

[3] = system: upland rice (Oryza sp., var.Tebonnet, RICE); assay: Post-emerge greenhouse test, crop damage rating; conditions: 14 days after application
How it was run: as §1

[4] = system: green foxtail (Setaria viridis, SETVI); assay: Pre-emerge greenhouse herbicide test, phytotoxicity rating; conditions: 14 days after application, rating scale 0-100
How it was run: (§2)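 Seeds sown in sandy loam one day before track-sprayer application of acetone solutions at 125–1000 g ai/ha (187 l/ha), then surface-watered to incorporate and bottom-watered. Injury scored visually at 14 days on a 0–100 scale (0 no damage, 100 complete death).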

[5] = system: Johnsongrass (Sorghum halepense, SORHA); assay: as above; conditions: 14 days after application, rating scale 0-100
How it was run: as §2

[6] = system: barnyardgrass (Echinochloa crusgalli, ECHCG); assay: as above; conditions: 14 days after application, rating scale 0-100
How it was run: as §2

[7] = system: redroot pigweed (Amaranthus retroflexus, AMARE); assay: as above; conditions: 14 days after application, rating scale 0-100
How it was run: as §2

[8] = system: large crabgrass (Digitaria sanguinalis, DIGSA); assay: as above; conditions: 14 days after application, rating scale 0-100
How it was run: as §2

[9] = system: sicklepod (Cassia obtusifolia, CASOB); assay: as above; conditions: 14 days after application, rating scale 0-100
How it was run: as §2

[10] = system: ivyleaf morningglory (Ipomoea hederacea, IPOHE); assay: as above; conditions: 14 days after application, rating scale 0-100
How it was run: as §2

[11] = system: lambsquarters (Chenopodium album, CHEAL); assay: as above; conditions: 14 days after application, rating scale 0-100
How it was run: as §2

[12] = system: velvetleaf (Abutilon theophrasti, ABUTH); assay: as above; conditions: 14 days after application, rating scale 0-100
How it was run: as §2

[13] = system: common ragweed (Ambrosia artemisiifolia L., AMBEL); assay: as above; conditions: 14 days after application, rating scale 0-100
How it was run: as §2

[14] = system: soybean (Glycine max L., var. Pella 86, SOY); assay: Pre-emerge greenhouse test, crop damage rating; conditions: 14 days after application, rating scale 0-100
How it was run: as §2

[15] = system: field corn (Zea mays L., var. Dekalb 535, CORN); assay: Pre-emerge greenhouse test, crop damage rating; conditions: 14 days after application, rating scale 0-100
How it was run: as §2

[16] = system: upland rice (Oryza sp., var.Tebonnet, RICE); assay: Pre-emerge greenhouse test, crop damage rating; conditions: 14 days after application, rating scale 0-100
How it was run: as §2

[17] = system: green foxtail (Setaria viridis, SETVI); assay: Post-emerge greenhouse herbicide test, phytotoxicity rating; conditions: 14 days after application
How it was run: as §1

[18] = system: Johnsongrass (Sorghum halepense, SORHA); assay: as above; conditions: 14 days after application
How it was run: as §1

[19] = system: barnyardgrass (Echinochloa crusgalli, ECHCG); assay: as above; conditions: 14 days after application
How it was run: as §1

[20] = system: redroot pigweed (Amaranthus retroflexus, AMARE); assay: as above; conditions: 14 days after application
How it was run: as §1

[21] = system: large crabgrass (Digitaria sanguinalis, DIGSA); assay: as above; conditions: 14 days after application
How it was run: as §1

[22] = system: sicklepod (Cassia obtusifolia, CASOB); assay: as above; conditions: 14 days after application
How it was run: as §1

[23] = system: ivyleaf morningglory (Ipomoea hederacea, IPOHE); assay: as above; conditions: 14 days after application
How it was run: as §1

[24] = system: lambsquarters (Chenopodium album, CHEAL); assay: as above; conditions: 14 days after application
How it was run: as §1

[25] = system: velvetleaf (Abutilon theophrasti, ABUTH); assay: as above; conditions: 14 days after application
How it was run: as §1

[26] = system: soybean (Glycine max L., var. Pella 86, SOY); assay: Post-emerge greenhouse test, crop damage rating; conditions: 14 days after application
How it was run: as §1

Cn1c(C(F)(F)F)nc(-c2cc(Oc3ncccn3)c(Cl)cc2F)c1Cl [Compound 2-3] was tested, and the “AMBEL phytotoxicity rating (0-100)” value ([1]; 63 g al/ha) was 30, the “AMBEL phytotoxicity rating (0-100)” value ([1]; 500 g al/ha) was 60 and the “CORN crop damage rating (0-100)” value ([2]; 63 g al/ha) was 30. The “CORN crop damage rating (0-100)” value ([2]; 500 g al/ha) was 80, the “RICE crop damage rating (0-100)” value ([3]; 63 g al/ha) was 40 and the “RICE crop damage rating (0-100)” value ([3]; 500 g al/ha) was 90. For the same molecule, the “phytotoxicity rating SETVI” value ([4]; 125 g ai/ha) was 95, the “phytotoxicity rating SETVI” value ([4]; 500 g ai/ha) was 100 and the “phytotoxicity rating SORHA” value ([5]; 125 g ai/ha) was 100. The “phytotoxicity rating SORHA” value ([5]; 500 g ai/ha) was 100, the “phytotoxicity rating ECHCG” value ([6]; 125 g ai/ha) was 80 and the “phytotoxicity rating ECHCG” value ([6]; 500 g ai/ha) was 100. The “phytotoxicity rating AMARE” value ([7]; 125 g ai/ha) was 100, the “phytotoxicity rating AMARE” value ([7]; 500 g ai/ha) was 100 and the “phytotoxicity rating DIGSA” value ([8]; 125 g ai/ha) was 100. The “phytotoxicity rating DIGSA” value ([8]; 500 g ai/ha) was 100, the “phytotoxicity rating CASOB” value ([9]; 125 g ai/ha) was 30 and the “phytotoxicity rating CASOB” value ([9]; 500 g ai/ha) was 100. For the same molecule, the “phytotoxicity rating IPOHE” value ([10]; 125 g ai/ha) was 20, the “phytotoxicity rating IPOHE” value ([10]; 500 g ai/ha) was 100 and the “phytotoxicity rating CHEAL” value ([11]; 125 g ai/ha) was 100. The “phytotoxicity rating CHEAL” value ([11]; 500 g ai/ha) was 100, the “phytotoxicity rating ABUTH” value ([12]; 125 g ai/ha) was 100 and the “phytotoxicity rating ABUTH” value ([12]; 500 g ai/ha) was 100. The “phytotoxicity rating AMBEL” value ([13]; 125 g ai/ha) was 35, the “phytotoxicity rating AMBEL” value ([13]; 500 g ai/ha) was 90 and the “crop damage rating SOY” value ([14]; 125 g ai/ha) was 50. For the same molecule, the “crop damage rating SOY” value ([14]; 500 g ai/ha) was 25, the “crop damage rating CORN” value ([15]; 125 g ai/ha) was 25 and the “crop damage rating CORN” value ([15]; 500 g ai/ha) was 35. The “crop damage rating RICE” value ([16]; 125 g ai/ha) was 30, the “crop damage rating RICE” value ([16]; 500 g ai/ha) was 55 and the “SETVI phytotoxicity rating (0-100)” value ([17]; 63 g al/ha) was 100. The “SETVI phytotoxicity rating (0-100)” value ([17]; 500 g al/ha) was 100, the “SORHA phytotoxicity rating (0-100)” value ([18]; 63 g al/ha) was 80 and the “SORHA phytotoxicity rating (0-100)” value ([18]; 500 g al/ha) was 95. For the same molecule, the “ECHCG phytotoxicity rating (0-100)” value ([19]; 63 g al/ha) was 30, the “ECHCG phytotoxicity rating (0-100)” value ([19]; 500 g al/ha) was 95 and the “AMARE phytotoxicity rating (0-100)” value ([20]; 63 g al/ha) was 100. For the same molecule, the “AMARE phytotoxicity rating (0-100)” value ([20]; 500 g al/ha) was 100, the “DIGSA phytotoxicity rating (0-100)” value ([21]; 63 g al/ha) was 0 and the “DIGSA phytotoxicity rating (0-100)” value ([21]; 500 g al/ha) was 80. The “CASOB phytotoxicity rating (0-100)” value ([22]; 63 g al/ha) was 30, the “CASOB phytotoxicity rating (0-100)” value ([22]; 500 g al/ha) was 70 and the “IPOHE phytotoxicity rating (0-100)” value ([23]; 63 g al/ha) was 100. For the same molecule, the “IPOHE phytotoxicity rating (0-100)” value ([23]; 500 g al/ha) was 100, the “CHEAL phytotoxicity rating (0-100)” value ([24]; 63 g al/ha) was 90 and the “CHEAL phytotoxicity rating (0-100)” value ([24]; 500 g al/ha) was 100. For the same molecule, the “ABUTH phytotoxicity rating (0-100)” value ([25]; 63 g al/ha) was 95, the “ABUTH phytotoxicity rating (0-100)” value ([25]; 500 g al/ha) was 100 and the “SOY crop damage rating (0-100)” value ([26]; 63 g al/ha) was 90. For the same molecule, the “SOY crop damage rating (0-100)” value ([26]; 500 g al/ha) was 90.
